The NIST ThermoML archive (doi:10.1016/j.jct.2006.11.003)

Experiment: xn = mol fraction of the nth substance listed
Conditions: 101 kPa, Liquid

Cc1cccc(C)c1 [1,3-dimethylbenzene] + CN1CCCC1=O
Conditions	mass density [kg/m3]
293.15 K, x1 = 0.0451	1024.18
293.15 K, x1 = 0.1145	1011.33
293.15 K, x1 = 0.1874	998.07
293.15 K, x1 = 0.2451	987.76
293.15 K, x1 = 0.3258	973.58
293.15 K, x1 = 0.3987	961
293.15 K, x1 = 0.4657	949.63
293.15 K, x1 = 0.5214	940.31
293.15 K, x1 = 0.5985	927.59
293.15 K, x1 = 0.6584	917.85
293.15 K, x1 = 0.7214	907.73
293.15 K, x1 = 0.7987	895.48
293.15 K, x1 = 0.8547	886.71
293.15 K, x1 = 0.9048	878.92
293.15 K, x1 = 0.9597	870.47
293.15 K, x1 = 1	864.31
303.15 K, x1 = 0.0541	1013.3
303.15 K, x1 = 0.1134	1002.37
303.15 K, x1 = 0.1954	987.52
303.15 K, x1 = 0.2562	976.72
303.15 K, x1 = 0.3214	965.31
303.15 K, x1 = 0.3895	953.58
303.15 K, x1 = 0.4487	943.53
303.15 K, x1 = 0.5014	934.7
303.15 K, x1 = 0.5782	922.02
303.15 K, x1 = 0.6484	910.6
303.15 K, x1 = 0.7154	899.86
303.15 K, x1 = 0.7654	891.93
303.15 K, x1 = 0.8241	882.72
303.15 K, x1 = 0.8815	873.79
303.15 K, x1 = 0.9465	863.8
303.15 K, x1 = 1	855.64
313.15 K, x1 = 0.0487	1005.18
313.15 K, x1 = 0.1151	992.96
313.15 K, x1 = 0.1745	982.21
313.15 K, x1 = 0.2495	968.86
313.15 K, x1 = 0.3147	957.46
313.15 K, x1 = 0.3851	945.34
313.15 K, x1 = 0.4587	932.89
313.15 K, x1 = 0.5185	922.93
313.15 K, x1 = 0.6214	906.08
313.15 K, x1 = 0.6785	896.89
313.15 K, x1 = 0.7484	885.77
313.15 K, x1 = 0.7945	878.53
313.15 K, x1 = 0.8521	869.55
313.15 K, x1 = 0.9021	861.83
313.15 K, x1 = 0.9548	853.77
313.15 K, x1 = 1	846.9
323.15 K, x1 = 0.0548	995.37
323.15 K, x1 = 0.1154	984.22
323.15 K, x1 = 0.1754	973.34
323.15 K, x1 = 0.2354	962.63
323.15 K, x1 = 0.2965	951.89
323.15 K, x1 = 0.3551	941.73
323.15 K, x1 = 0.4158	931.36
323.15 K, x1 = 0.4814	920.31
323.15 K, x1 = 0.5385	910.84
323.15 K, x1 = 0.5821	903.68
323.15 K, x1 = 0.6514	892.44
323.15 K, x1 = 0.7085	883.3
323.15 K, x1 = 0.7765	872.54
323.15 K, x1 = 0.8512	860.88
323.15 K, x1 = 0.9374	847.61
323.15 K, x1 = 1	838.09
333.15 K, x1 = 0.0451	987.86
333.15 K, x1 = 0.1102	975.88
333.15 K, x1 = 0.1985	959.95
333.15 K, x1 = 0.2511	950.64
333.15 K, x1 = 0.3201	938.59
333.15 K, x1 = 0.3952	925.71
333.15 K, x1 = 0.4625	914.36
333.15 K, x1 = 0.5214	904.57
333.15 K, x1 = 0.5985	891.95
333.15 K, x1 = 0.6584	882.28
333.15 K, x1 = 0.7121	873.71
333.15 K, x1 = 0.7741	863.94
333.15 K, x1 = 0.8351	854.42
333.15 K, x1 = 0.8812	847.31
333.15 K, x1 = 0.9487	836.99
333.15 K, x1 = 1	829.22
343.15 K, x1 = 0.0547	977.18
343.15 K, x1 = 0.1241	964.43
343.15 K, x1 = 0.1887	952.77
343.15 K, x1 = 0.2654	939.18
343.15 K, x1 = 0.3214	929.42
343.15 K, x1 = 0.3985	916.19
343.15 K, x1 = 0.4658	904.84
343.15 K, x1 = 0.5214	895.6
343.15 K, x1 = 0.5985	882.97
343.15 K, x1 = 0.6541	874
343.15 K, x1 = 0.7014	866.44
343.15 K, x1 = 0.7654	856.33
343.15 K, x1 = 0.8354	845.41
343.15 K, x1 = 0.8924	836.63
343.15 K, x1 = 0.9469	828.32
343.15 K, x1 = 1	820.29
353.15 K, x1 = 0.0544	968.44
353.15 K, x1 = 0.1214	956.1
353.15 K, x1 = 0.1958	942.64
353.15 K, x1 = 0.2562	931.9
353.15 K, x1 = 0.3214	920.5
353.15 K, x1 = 0.3985	907.25
353.15 K, x1 = 0.4515	898.28
353.15 K, x1 = 0.5114	888.28
353.15 K, x1 = 0.5941	874.69
353.15 K, x1 = 0.6621	863.71
353.15 K, x1 = 0.7214	854.26
353.15 K, x1 = 0.7852	844.22
353.15 K, x1 = 0.8471	834.59
353.15 K, x1 = 0.8915	827.76
353.15 K, x1 = 0.9565	817.85
353.15 K, x1 = 1	811.29

Cc1ccc(C)cc1 [1,4-dimethylbenzene] + CN1CCCC1=O
Conditions	mass density [kg/m3]
293.15 K, x1 = 0.0511	1023.02
293.15 K, x1 = 0.1204	1010.11
293.15 K, x1 = 0.1985	995.8
293.15 K, x1 = 0.2451	987.37
293.15 K, x1 = 0.2987	977.77
293.15 K, x1 = 0.3458	969.44
293.15 K, x1 = 0.4012	959.72
293.15 K, x1 = 0.4781	946.42
293.15 K, x1 = 0.5314	937.3
293.15 K, x1 = 0.5984	925.99
293.15 K, x1 = 0.6558	916.4
293.15 K, x1 = 0.7154	906.57
293.15 K, x1 = 0.7841	895.34
293.15 K, x1 = 0.8512	884.52
293.15 K, x1 = 0.9254	872.69
293.15 K, x1 = 1	860.95
303.15 K, x1 = 0.0645	1011.3
303.15 K, x1 = 0.1151	1001.91
303.15 K, x1 = 0.1814	989.76
303.15 K, x1 = 0.2654	974.62
303.15 K, x1 = 0.3214	964.66
303.15 K, x1 = 0.3854	953.43
303.15 K, x1 = 0.4515	941.97
303.15 K, x1 = 0.5024	933.26
303.15 K, x1 = 0.5685	922.06
303.15 K, x1 = 0.6214	913.21
303.15 K, x1 = 0.6754	904.26
303.15 K, x1 = 0.7451	892.85
303.15 K, x1 = 0.8114	882.12
303.15 K, x1 = 0.8841	870.51
303.15 K, x1 = 0.9514	859.89
303.15 K, x1 = 1	852.3
313.15 K, x1 = 0.0521	1004.87
313.15 K, x1 = 0.1142	993.77
313.15 K, x1 = 0.1721	983.53
313.15 K, x1 = 0.2302	973.36
313.15 K, x1 = 0.3065	960.16
313.15 K, x1 = 0.3615	950.77
313.15 K, x1 = 0.4115	942.31
313.15 K, x1 = 0.4841	930.18
313.15 K, x1 = 0.5547	918.53
313.15 K, x1 = 0.6208	907.77
313.15 K, x1 = 0.7055	894.15
313.15 K, x1 = 0.7805	882.26
313.15 K, x1 = 0.8372	873.36
313.15 K, x1 = 0.8947	864.42
313.15 K, x1 = 0.9539	855.29
323.15 K, x1 = 0.0575	994.81
323.15 K, x1 = 0.1247	982.32
323.15 K, x1 = 0.2011	968.35
323.15 K, x1 = 0.2784	954.42
323.15 K, x1 = 0.338	943.85
323.15 K, x1 = 0.4015	932.73
323.15 K, x1 = 0.4697	920.97
323.15 K, x1 = 0.5389	909.19
323.15 K, x1 = 0.6003	898.9
323.15 K, x1 = 0.6674	887.8
323.15 K, x1 = 0.7245	878.46
323.15 K, x1 = 0.7806	869.38
323.15 K, x1 = 0.8341	860.82
323.15 K, x1 = 0.8947	851.21
323.15 K, x1 = 0.9481	842.83
323.15 K, x1 = 1	834.76
333.15 K, x1 = 0.0462	987.58
333.15 K, x1 = 0.1025	977.11
333.15 K, x1 = 0.1724	964.26
333.15 K, x1 = 0.2354	952.85
333.15 K, x1 = 0.2951	942.18
333.15 K, x1 = 0.3658	929.72
333.15 K, x1 = 0.4315	918.31
333.15 K, x1 = 0.5007	906.49
333.15 K, x1 = 0.5714	894.57
333.15 K, x1 = 0.6378	883.55
333.15 K, x1 = 0.7047	872.6
333.15 K, x1 = 0.7533	864.73
333.15 K, x1 = 0.8258	853.13
333.15 K, x1 = 0.8846	843.83
333.15 K, x1 = 0.9479	833.93
333.15 K, x1 = 1	825.86
343.15 K, x1 = 0.0675	974.69
343.15 K, x1 = 0.1353	962.13
343.15 K, x1 = 0.2024	949.85
343.15 K, x1 = 0.2715	937.41
343.15 K, x1 = 0.3376	925.68
343.15 K, x1 = 0.4061	913.71
343.15 K, x1 = 0.4719	902.38
343.15 K, x1 = 0.5422	890.46
343.15 K, x1 = 0.6103	879.09
343.15 K, x1 = 0.6749	868.44
343.15 K, x1 = 0.7405	857.78
343.15 K, x1 = 0.8049	847.44
343.15 K, x1 = 0.8674	837.54
343.15 K, x1 = 0.9308	827.6
343.15 K, x1 = 0.9788	820.15
343.15 K, x1 = 1	816.87
353.15 K, x1 = 0.0567	967.91
353.15 K, x1 = 0.1134	957.31
353.15 K, x1 = 0.1826	944.57
353.15 K, x1 = 0.2527	931.85
353.15 K, x1 = 0.3072	922.09
353.15 K, x1 = 0.3857	908.27
353.15 K, x1 = 0.4584	895.67
353.15 K, x1 = 0.5036	887.95
353.15 K, x1 = 0.5757	875.79
353.15 K, x1 = 0.6382	865.4
353.15 K, x1 = 0.7016	855.01
353.15 K, x1 = 0.7613	845.35
353.15 K, x1 = 0.8139	836.93
353.15 K, x1 = 0.8846	825.75
353.15 K, x1 = 0.9378	817.44
353.15 K, x1 = 1	807.81
